The record followed here is US20250026746A1, “ENHANCERS OF PARTICULATE GUANYLYL CYCLASE RECEPTOR A” (Mayo Foundation for Medical Education and Research, priority 2021, published 2025).

Common to all, as to format: cell-based
The target of one assay is T1, human GC-A (Homo sapiens, UniProt P16066).
T1 construct: host or cells: HEK293
T1 sequence (P16066 33-1061): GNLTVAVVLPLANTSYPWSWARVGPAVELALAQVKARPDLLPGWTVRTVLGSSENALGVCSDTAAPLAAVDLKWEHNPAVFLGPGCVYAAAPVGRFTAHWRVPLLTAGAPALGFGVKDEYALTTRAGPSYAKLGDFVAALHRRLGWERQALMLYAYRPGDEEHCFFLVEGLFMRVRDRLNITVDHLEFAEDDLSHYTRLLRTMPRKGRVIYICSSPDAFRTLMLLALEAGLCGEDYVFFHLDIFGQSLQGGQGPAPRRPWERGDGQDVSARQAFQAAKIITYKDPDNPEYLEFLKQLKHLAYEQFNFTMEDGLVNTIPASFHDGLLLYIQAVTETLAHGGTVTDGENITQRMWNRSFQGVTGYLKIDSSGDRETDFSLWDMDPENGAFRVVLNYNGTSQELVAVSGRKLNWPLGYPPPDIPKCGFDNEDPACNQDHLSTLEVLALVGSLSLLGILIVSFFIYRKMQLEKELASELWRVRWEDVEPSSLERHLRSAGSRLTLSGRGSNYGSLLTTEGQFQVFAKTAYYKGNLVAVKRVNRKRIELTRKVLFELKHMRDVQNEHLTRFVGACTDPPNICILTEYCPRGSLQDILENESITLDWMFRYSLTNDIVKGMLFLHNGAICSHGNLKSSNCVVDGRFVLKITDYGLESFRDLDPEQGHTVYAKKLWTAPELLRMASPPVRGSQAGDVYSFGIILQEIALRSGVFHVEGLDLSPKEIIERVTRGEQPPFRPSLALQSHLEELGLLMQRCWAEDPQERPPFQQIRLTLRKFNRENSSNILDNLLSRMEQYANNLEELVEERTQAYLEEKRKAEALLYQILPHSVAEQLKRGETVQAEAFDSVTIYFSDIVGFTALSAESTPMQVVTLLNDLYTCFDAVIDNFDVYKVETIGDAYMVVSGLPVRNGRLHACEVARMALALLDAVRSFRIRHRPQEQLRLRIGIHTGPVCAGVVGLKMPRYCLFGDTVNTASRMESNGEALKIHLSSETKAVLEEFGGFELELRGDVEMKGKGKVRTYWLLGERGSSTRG
T1 sequence (P01160 124-151 partner limits assumed): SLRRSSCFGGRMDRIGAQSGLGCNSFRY
Briefly: cGMP levels (ELISA) in HEK293 cells overexpressing human GC-A. To be noted: acetate salt; for cGMP generation in the presence of ANP: ANP (10^−10 M). On the procedure:
HEK293 GC-A cells were seeded in 48-well plates (1×10^5 cell per well) and cultured overnight to reach 80-90% confluency. The treatment buffer that consists of Hank's Balanced Salt Solution (HBSS), 0.1% BSA, 2 mM HEPES and 0.5 mM 3-isobutyl-1-methylzanthine (IBMX—a non-specific phosphodiesterase inhibitor), was used in all experiments. Compound 3, Compound 1, and Compound 2 acetate salt were dissolved in DMSO and ANP was dissolved in phosphate buffered solution (PBS). On the experimental day, growth media was replaced with treatment buffer and HEK293 GC-A cells were 1) treated with Compound 3, Compound 1 or Compound 2 at doses of 1 or 10 μM (reaching a final concentration of 0).1% DMSO) alone for 5 min at 37° C.: or 2) pretreated with Compound 3, Compound 1 or Compound 2 at doses of 1 or 10 μM (reaching a final concentration of 0.1% DMSO) for 5 min at 37° C., followed by a treatment with ANP (10^-10 M) for additional 10 min at 37° C. HEK293 GC-A cells were also treated with vehicle (0.1% DMSO) which served as a negative control. Then all cells were washed with PBS once and lysed with 0.1M HCl. Intracellular cGMP was measured in the lysate using a commercial cGMP ELISA kit (Enzo Life Sciences, Farmingdale, NY) as instructed by the manufacturer.
Background: In an ELISA, binding on a coated surface is turned into a signal by an enzyme label.

The test system of assay [1] is Primary Human cardiomyocytes. The assay is described as follows: cGMP levels (ELISA) in human cardiomyocytes. The following applies: acetate salt, ANP (10^-10 M); for cGMP generation in HCMs in the presence of ANP: 1 or 10 μM, vs vehicle. Here is the method:
Primary Human cardiomyocytes (HCMs: Catalog No. 6200, Lot No. 6288, PromoCell) were maintained and subcultured according to the manufacturer's protocols. Passage 5 was used in the study. Treatment buffer, Compound 3, Compound 1 and Compound 2 acetate salt, ANP, and vehicle were prepared as described above. Briefly, 5×10^5 of cells/well were grown in 6-well plates until 80 to 90% confluency and were then pretreated with vehicle or Compound 3, Compound 1 or Compound 2 at doses of 1 or 10 μM for 5 min at 37° C., then cells were treated with ANP (10^-10 M) for an additional 10 min at 37° C. Afterward, all cells were washed with PBS once and lysed with 0.1 M HCl at room temperature, and intracellular cGMP levels were measured in the lysate using a commercial cGMP ELISA kit (Enzo Life Sciences) with the acetylation method as instructed by the manufacturer.

The target of a further assay is T2, human pGC-A (Homo sapiens, UniProt P16066).
T2 construct: expressed in transfected cells; host or cells: HEK293
T2 sequence (P16066 33-1061): T1 sequence (P16066 33-1061)
T2 sequence (P01160 124-151 partner limits assumed): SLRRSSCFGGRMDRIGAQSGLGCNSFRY
The assay is described as follows: Positive allosteric modulation of pGC-A-mediated cGMP production, HTRF competition assay (Example 1). To be noted: free base; for EC50: HEK 293 human pGC-A expressing cells, presence of EC30 ANP (1.3 pM), average of 3 independent experiments, read-out: pEC50 cGMP response (converted). On the procedure: Test compounds at 10 mM DMSO stock concentration were added to 384 well assay plates using Tecan dispenser starting at 40 μM concentration and diluted 2-fold for 10-point concentration-response curves. Wells were backfilled with DMSO such that the final concentration of DMSO in all wells was maintained at 0.3% DMSO. Positive allosteric modulation (presence of EC30 concentration of ANP at 1.3 pM) of pGC-A-mediated activation of cGMP production was measured in human pGC-A overexpressing HEK293 cells by homogenous time-resolved florescence (HTRF) competition assay using cGMP CisBio detection kit (Cat #: 62GM2PEC). Enantiomerically pure(S)-N-(4,6-difluorobenzo[d]thiazol-2-yl)-1-(2-(dimethylamino)ethyl) piperidine-3-carboxamide and (R)-N-(4,6-difluorobenzo[d]thiazol-2-yl)-1-(2-(dimethylamino)ethyl) piperidine-3-carboxamide were individually synthesized from enantiomerically pure starting materials (R- and S-nipecotic acid).
On the technique in general: In TR-FRET formats the signal depends on donor and acceptor labels being close together.

In the case of `CN(C)CCN1CCCC(C(=O)Nc2nc3c(F)cc(F)cc3s2)C1` (racemic) [Compound 3, N-(4,6-difluorobenzo[d]thiazol-2-yl)-1-(2-(dimethylamino)ethyl) piperidine-3-carboxamide], on human GC-A (1 or 10 μM), the “cGMP generation in the presence of ANP” value is on record as “dose dependent increase”. The “cGMP generation, compound alone” value at human GC-A (1 or 10 μM, without ANP, vs vehicle) is reported as “no effect”.

As for `CN(C)CCN1CCC[C@H](C(=O)Nc2nc3c(F)cc(F)cc3s2)C1` [Compound 1, (S)-N-(4,6-difluorobenzo[d]thiazol-2-yl)-1-(2-(dimethylamino)ethyl) piperidine-3-carboxamide], the “cGMP generation in the presence of ANP” value at human GC-A (1 or 10 μM) is “dose response increase”. For the same molecule, on human GC-A (both doses (1 and 10 μM), ANP (10^-10 M)), the “cGMP generation in the presence of ANP, Compound 1 compared with Compound 2” value is recorded as “higher”. In assay [1], the “cGMP generation in HCMs in the presence of ANP” value is reported as “increased cGMP levels in a dose dependent manner”. The “cGMP generation in HCMs, Compound 1 compared with Compound 2” value in assay [1] (both doses) is “more potent”. The EC50 on human pGC-A is 398 nM. Besides, the “fold more potent than the R-enantiomer (compound 2)” value at human pGC-A (presence of ANP) was 3.5 fold.

`CN(C)CCN1CCC[C@@H](C(=O)Nc2nc3c(F)cc(F)cc3s2)C1` [Compound 2, (R)-N-(4,6-difluorobenzo[d]thiazol-2-yl)-1-(2-(dimethylamino)ethyl) piperidine-3-carboxamide]: on human GC-A (1 or 10 μM), the “cGMP generation in the presence of ANP” value is “dose response increase”. Further, in assay [1], the “cGMP generation in HCMs in the presence of ANP” value is recorded as “increased cGMP levels in a dose dependent manner”. On human pGC-A, the EC50 was 1260 nM.
